From patent US8642657B2 (Gruenenthal GmbH, priority 2003, dated 2014)

Columns and labels:
rat VR1 [1] = target: T1, rat VR1 (Rattus norvegicus, UniProt O35433); assay: 45Ca2+-uptake assay in CHO/VR1 cells, antagonism of capsaicin-stimulated uptake; format: cell-based; settings: 45Ca2+ uptake stimulated by 50 nM capsaicin
T1 construct: expressed in transfected cells
Method: Initial stocks were dissolved in DMSO. For the binding assays, compounds were diluted in with DPBS with Ca^2+ and Mg^2+ and 0.25 mg/mL bovine serum albumin. For the calcium uptake assays, compounds were diluted in DMEM with 0.25 mg/mL bovine serum albumin.
Molecules were characterized to determine whether they were full agonists, partial agonists, or antagonists. For studies of ^45Ca^2+ uptake by CHO/VR1 cells (Tet-off cells), the cells were plated in 24-well plates to yield a cell density 20-40% of that required to produce confluence. The next day the medium was changed to remove the tetracycline and induce VR1 expression. Experiments were performed approximately 36-40 hours after induction. For ^45Ca^2+ uptake assay, cells were incubated for 5 min at 37° C. in a total volume of 400 μL of serum free DMEM (containing 1.8 mM CaCl2) in the presence of 0.25 mg/mL BSA (Sigma), 1 μCi/mL ^45Ca^2+ (5-30 Ci/g from ICN, CA), and increasing concentrations of the compound to be tested. Immediately after the incubation, extracellular ^45Ca^2+ was removed by washing the cells three times with cold DPBS (containing 1.8 mM CaCl2). Then 400 μl RIPA buffer (50 mM Tris pH 7.4; 150 mM NaCl; 1% Triton X-100; 0.1% SDS; 1% sodium deoxycholate) was added to each well in order to lyse the cells. Plates were shaken slowly for 20 min; then 306 μL of cell lysate was transferred from each well into a scintillation vial and radioactivity was determined by scintillation counting. For each data point in each experiment, four wells were assayed. Data from these experiments were analyzed by computer fit to the Hill equation. At least 3 separate experiments were carried out for each compound. In order to determine antagonist activity, studies were performed in exactly the same fashion with the exception that 50 nM capsaicin was added to the assay mixture to stimulate ^45Ca^2+ uptake.

rat VR1 [2] = target: T1, rat VR1; assay: [3H]resiniferatoxin (RTX) competition binding assay, VR1-transfected CHO cells
Summary of the method: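 Competition with [3H]RTX (50-100 pM) ran 60 min at 37° C using whole VR1-induced CHO cells in BSA-containing DPBS, nonspecific defined by 100 nM cold RTX. After centrifugation, pellet radioactivity counted by scintillation; Hill fits gave Ki and cooperativity.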

[3] = competition with [3H]RTX, rat VR1 in CHO cells, read-out: Ki (nM) Binding Affinity

T1 sequence (O35433 whole entry): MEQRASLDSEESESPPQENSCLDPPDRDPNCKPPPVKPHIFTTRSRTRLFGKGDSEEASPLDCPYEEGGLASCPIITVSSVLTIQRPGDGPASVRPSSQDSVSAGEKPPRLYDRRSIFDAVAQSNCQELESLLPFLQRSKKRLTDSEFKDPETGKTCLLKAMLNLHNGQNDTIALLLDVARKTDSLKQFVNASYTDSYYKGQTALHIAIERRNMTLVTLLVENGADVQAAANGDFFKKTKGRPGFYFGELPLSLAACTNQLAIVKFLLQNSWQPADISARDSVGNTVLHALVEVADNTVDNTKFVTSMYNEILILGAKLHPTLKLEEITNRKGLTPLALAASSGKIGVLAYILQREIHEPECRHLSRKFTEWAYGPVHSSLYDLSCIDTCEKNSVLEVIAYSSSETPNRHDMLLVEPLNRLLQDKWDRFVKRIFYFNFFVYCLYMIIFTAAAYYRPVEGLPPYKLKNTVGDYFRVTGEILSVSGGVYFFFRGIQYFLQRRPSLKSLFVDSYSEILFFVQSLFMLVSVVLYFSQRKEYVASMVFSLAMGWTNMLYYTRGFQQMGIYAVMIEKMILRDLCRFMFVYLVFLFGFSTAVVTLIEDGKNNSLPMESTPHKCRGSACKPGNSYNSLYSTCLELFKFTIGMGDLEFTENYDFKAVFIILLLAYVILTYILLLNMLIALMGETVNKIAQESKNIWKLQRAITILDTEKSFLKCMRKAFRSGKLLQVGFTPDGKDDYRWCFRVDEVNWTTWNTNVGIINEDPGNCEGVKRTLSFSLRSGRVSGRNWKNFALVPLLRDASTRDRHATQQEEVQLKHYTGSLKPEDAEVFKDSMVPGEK

| Compound | Ki (rat VR1 [1]) | melting point | Ki (rat VR1 [2]; [3]) | Ki (rat VR1 [2]) |
| --- | --- | --- | --- | --- |
| CC(C)c1ccc(CNC(=O)C(C)c2ccc(NS(C)(=O)=O)c(F)c2)cc1 (stereo not drawn) [4-8, N-(4-Isopropylbenzyl)-2-[3-fluoro-4-(methylsulfonylamino)phenyl]propionamide] | 143 nM | 137 to 139 °C | 127 nM |  |
| CC(C(=O)NCc1cccc2ccccc12)c1ccc(NS(C)(=O)=O)c(F)c1 (stereo not drawn) [4-12, N-(1-Naphthylmethyl)-2-[3-fluoro-4-(methylsulfonylamino)phenyl]propionamide] | 239 nM | 159 to 161 °C | 959 nM |  |
| C[C@@H](NC(=S)NC[C@@H](COC(=O)C(C)(C)C)Cc1ccccc1)c1ccc(NS(C)(=O)=O)cc1 [18-2, N-[(2S)-2-Benzyl-3-(pivaloyloxy)propyl]-N′-{(1R)-1-[4-(methylsulfonylamino)phenyl]ethyl}thiourea] | 89 nM | 58 to 62 °C |  | 19.4 nM |
| C[C@@H](NC(=S)N[C@@H](COC(=O)C(C)(C)C)Cc1ccccc1)c1ccc(NS(C)(=O)=O)cc1 [19-13, N-[(2R)-3-phenyl-1-pivaloyloxy-2-propyl]-N′-[(R)-α-methyl-4-(methylsulfonylamino)benzy]thiourea] | 193 nM | 59 to 61 °C |  | 420 nM |
| CC(C(=O)NCc1ccc(Cl)cc1)c1ccc(NS(C)(=O)=O)cc1 (stereo not drawn) [2-8, N-(4-Chlorobenzyl)-2-[4-(methylsulfonylamino)phenyl]propionamide] | 1090 nM | 164 °C |  | 3500 nM |
| COc1cc(C2(NC(=S)NCc3ccc(C(C)(C)C)cc3)CC2)ccc1NS(C)(=O)=O [22-9, N-(4-t-Butylbenzyl)-N′-{1-[3-methoxy-4-(methylsulfonylamino)phenyl]cyclopropyl}thiourea] | 243 nM | 100 to 103 °C | 372 nM |  |
| CC(C(=O)NCc1ccc(C(C)(C)C)cc1)c1cc(F)c(NS(C)(=O)=O)c(F)c1 (stereo not drawn) [1-55, N-(4-tert-Butylbenzyl)-2-[3,5-difluoro-4-(methylsulfonylamino)phenyl]propionamide] | 7.38 nM | 80 to 81 °C | 19.9 nM |  |
| CC(C)(C)c1ccc(CNC(=S)NC2(c3ccc(NS(C)(=O)=O)cc3)CC2)cc1 [22-7, N-(4-t-Butylbenzyl)-N′-{1-[4-(methylsulfonylamino)phenyl]cyclopropyl}thiourea] | 60.3 nM | 110 to 113 °C | 171 nM |  |
| CC(C(=O)NCc1ccc(C(C)(C)C)cc1)c1ccc(NS(C)(=O)=O)cc1F (stereo not drawn) [1-66, N-(4-tert-Butylbenzyl)-2-[2-fluoro-4-(methylsulfonylamino)phenyl]propionamide] | 120 nM | 111 to 113 °C | 358 nM |  |
| C[C@@H](NC(=S)NC[C@H](COC(=O)C(C)(C)C)Cc1ccccc1)c1ccc(NS(C)(=O)=O)cc1 [18-1, N-[(2R)-2-Benzyl-3-(pivaloyloxy)propyl]-N′-{(1R)-1-[4-(methylsulfonylamino)phenyl]ethyl}thiourea] | 44.5 nM | 62 to 64 °C |  | 22.7 nM |
| CC(C(=O)NCc1ccc(Cl)c(Cl)c1)c1ccc(NS(C)(=O)=O)c(Br)c1 (stereo not drawn) [4-6, N-(3,4-Dichlorobenzyl)-2-[3-bromo-4-(methylsulfonylamino)phenyl]propionamide] | 89.6 nM | 161 to 162 °C |  | 226 nM |
| COc1cc(C(C)(C)C(=O)NCC(COC(=O)C(C)(C)C)Cc2ccc(C)c(C)c2)ccc1NS(C)(=O)=O (stereo not drawn) [9-3, N-[2-(3,4-Dimethylbenzyl)-3-pivaloyloxypropyl]-2-[3-methoxy-4-(methylsulfonylamino)phenyl]-2-methylpropionamide] | 133 nM | 100 to 103 °C | 152 nM |  |
| CC(C(=O)NCc1ccc(-c2ccccc2)cc1)c1ccc(NS(C)(=O)=O)c(F)c1 (stereo not drawn) [4-11, N-(4-Biphenylmethyl)-2-[3-fluoro-4-(methylsulfonylamino)phenyl]propionamide] | 261 nM | 155 to 157 °C | 1750 nM |  |
| CC(C)(C)c1ccc(CNC(=O)C(C)(C)c2ccc(NS(C)(=O)=O)c(F)c2)cc1 [9-8, N-(4-tert-Butylbenzyl)-2-[3-fluoro-4-(methylsulfonylamino)phenyl]-2-methylpropionamide] | 467 nM | 48 to 51 °C | 1070 nM |  |
| COc1cc(C(C)C(=O)NCC(COC(=O)C(C)(C)C)Cc2ccc(C)c(C)c2)ccc1NS(C)(=O)=O (stereo not drawn) [5-5, N-[2-(3,4-Dimethylbenzyl)-3-pivaloyloxypropyl]-2-[3-methoxy-4-(methylsulfonylamino)phenyl]propionamide] | 13.6 nM | 54 to 57 °C | 71.2 nM |  |
| CC(C(=O)NCC=C(c1ccc(F)cc1)c1ccc(F)cc1)c1ccc(NS(C)(=O)=O)c(F)c1 (stereo not drawn) [4-27, N-[3,3-Di(4-fluorophenyl)-2-propenyl]-2-[3-fluoro-4-(methylsulfonylamino)phenyl]propionamide] | 29.3 nM | 57 to 60 °C | 43.3 nM |  |
| CC(C)(C)c1ccc(CNC(=S)NC(C)(C)c2ccc(NS(C)(=O)=O)c(F)c2)cc1 [21-8, N-(4-t-Butylbenzyl)-N′-{1-methyl-1-[3-fluoro-4-(methylsulfonylamino)phenyl]ethyl}thiourea] | 983 nM | 83 to 85 °C | 7740 nM |  |
| Cc1ccc(CCCNC(=O)C2(c3ccc(NS(C)(=O)=O)cc3)CC2)cc1C [12-4, N-[3-(3,4-Dimethylphenyl)propyl]-1-[4-(methylsulfonylamino)phenyl]cyclopropanecarboxamide] | 1100 nM | 127 to 128 °C |  | 1740 nM |
| CC(C(=O)NCc1ccc(C(F)(F)F)cc1)c1ccc(NS(C)(=O)=O)c(F)c1 (stereo not drawn) [4-10, N-(4-Trifluoromethylbenzyl)-2-[3-fluoro-4-(methylsulfonylamino)phenyl]propionamide] | 274 nM | 150 to 152 °C | 657 nM |  |
| C[C@H](C(=O)N[C@@H](COC(=O)C(C)(C)C)Cc1ccccc1)c1ccc(NS(C)(=O)=O)c(F)c1 [6-1, N—[(R)-1-Benzyl-2-(pivaloyloxy)ethyl]-(S)-2-[3-fluoro-4-(methylsulfonylamino)phenyl]propionamide] | 1470 nM | 115 °C | 12800 nM |  |
| CC(C(=O)NCc1ccc(Cl)cc1)c1ccc(NS(C)(=O)=O)c(Br)c1 (stereo not drawn) [4-3, N-(4-Chlorobenzyl)-2-[3-bromo-4-(methylsulfonylamino)phenyl]propionamide] | 296 nM | 147 °C |  | 541 nM |
| COc1cc(C(C)(C)NC(=S)NCc2ccc(C(C)(C)C)cc2)ccc1NS(C)(=O)=O [21-9, N-(4-t-Butylbenzyl)-N′-{1-methyl-1-[3-methoxy-4-(methylsulfonylamino)phenyl]ethyl}thiourea] | 663 nM | 148 to 150 °C | 2890 nM |  |
| CC(C(=O)NCc1ccc(C(C)(C)C)cc1)c1ccc(NS(C)(=O)=O)cc1 (stereo not drawn) [2-7, N-(4-tert-Butylbenzyl)-2-[4-(methylsulfonylamino)phenyl]propionamide] | 17.5 nM | 77 to 79 °C | 105 nM |  |
| C[C@H](C(=O)NC[C@H](COC(=O)C(C)(C)C)Cc1ccc(C(C)(C)C)cc1)c1ccc(NS(C)(=O)=O)c(Cl)c1 [6-13, N-[(2R)-2-(4-t-Butylbenzyl)-3-(pivaloyloxy)propyl]-(2S)-2-[3-chloro-4-(methylsulfonylamino)phenyl]propionamide] | 5.23 nM | 61 to 63 °C | 1.83 nM |  |
| CC(C)C(NC(=S)NCc1ccc(C(C)(C)C)cc1)c1ccc(NS(C)(=O)=O)c(F)c1 (stereo not drawn) [20-13, N′-(4-t-Butylbenzyl)-N-{1-[4-(methylsulfonylamino)-3-fluorophenyl]-2-methylpropyl}thiourea] | 223 nM | 84 °C | 338 nM |  |
| COC(=O)c1cc(C(C)NC(=S)NCc2ccc(C(C)(C)C)cc2)ccc1NS(C)(=O)=O (stereo not drawn) [15-4, N-(4-t-Butylbenzyl)-N′-{1-[3-(methoxycarbonyl)-4-(methylsulfonylamino)phenyl]ethyl}thiourea] | 65.8 nM | 132 to 135 °C |  | 163 nM |
| COc1cc(C(C)(C)C(=O)NCCCc2ccc(C)c(C)c2)ccc1NS(C)(=O)=O [9-6, N-[3-(3,4-Dimethylphenyl)propyl]-2-[3-methoxy-4-(methylsulfonylamino)phenyl]-2-methylpropionamide] | 366 nM | 93 to 95 °C |  | 838 nM |
